Experiment [1] has as its system interaction between p53 and large T. Put plainly: Two-hybrid assay in yeasts, positive interaction control p53 - large T. It is filed as cell-based. The following applies: 100 μM. The protocol:
Each of the 52 mixtures of peptoids was analyzed by means of this process in triplicate, in three independent experiments. The interaction between UBC13 and UEV1 in the absence of peptoids and the interaction between p53 and the SV40 large T protein were used as positive interaction controls in all these assays. The laminin and […] proteins were used as a negative control. The β-galactosidase activities for the UBC13-UEV1 interaction were standardized with respect to the β-galactosidase activities of the corresponding positive control thereof (p53-large T). The activities β-galactosidase standardized in that manner are illustrated in FIG. 2.
The effect of compounds Ia and Ib on the UBC13-UEV1 interaction in two-hybrid assays in yeasts was performed by incubating cells of the Saccharomyces cerevisiae strain AH109, grown in a selective medium, with 100 μM of either compound. The interaction of Sv40 large T and p53 proteins was used as positive interaction control. The intensity of the interactions was determined colorimetrically by means of detecting the β-galactosidase activity, using O-nitrophenyl-p-galactopyranoside (ONPG) as a substrate, each determination being performed in triplicate. […]

In experiment [2] the test system is transcriptional activity of NF-κB induced by TNFα. Put plainly: NF-κB luciferase reporter assay, stimulation by TNFα in HeLa cells. Type of experiment: cell-based. The settings on record: TNFα 10 ng/mL; for inhibition of the stimulation of the transcriptional activity of NF-κB induced by TNFα: HeLa cells, different concentrations. The procedure: To determine the activity of compounds Ia and Ib on the stimulation of the NFκ-B activity by TNFα, assays for inducing luciferase activity (determined with the Dual-Luciferase Reporter Assay System kit, Promega, catalog number E1910) generated by expression of the firefly (Photinus pyralis) luciferase gene directed by a promoter containing three recognition sites for NFκ-B were performed. To that end, HeLa cells were co-transfected with plasmid pRL-TK, encoding the Renilla reniformis Luciferase and being a transfection efficiency control, and plasmid prLUC, a plasmid which allows determining the transcriptional activity of NF-κB, using Fugene (Roche) as a transfection vehicle. 100,000 cells were seeded in 6-well plates (Costar). On the following day, the transfection complex was formed with 0.5 μg of each plasmid and 3 μl of Fugene for 15 minutes. The complex was added to the cells in Optimem medium (InVitrogen), and after 5 hours it was changed to complete medium (Dulbecco's Modified Eagle's Medium with 10% fetal bovine serum, 2 mM of glutamine, supplemented with penicillin and streptomycin), to which the compound Varubin (Ia) or Ib at different concentrations was added or not. On the following day, the cells were incubated with TNFα (10 ng/mL) for 4 hours, after which they were washed with phosphate buffered saline (PBS) and lysated with 250 μL of lysis buffer, following the manufacturer's (Promega) indications. 100 μL of luciferase reagent (LARII) were added to the lysate to measure the firefly luciferase activity, after which the reaction was stopped with 100 μL of stop buffer with Renilla reniformis luciferase substrate, this second activity being determined at that time. The firefly luciferase activity was standardized in relation to the Renilla luciferase activity. The values corresponding to cells transfected but not stimulated with TNFα were used as standardizers for the remaining experimental values. […]
(In general: Reporter assays use an easily measured gene product as a stand-in for the process of interest.)

The subject of experiment [3] is S. cerevisiae Δrev3 mutants. Put plainly: Survival of S. cerevisiae Δrev3 mutants after ultraviolet radiation or MMS. It is filed as cell-based, Saccharomyces cerevisiae. The settings on record: 100 μM; UV or 0.03% MMS. The protocol:
To determine if compounds Ia and Ib inhibit the function of Ubc13p-Mms2p, their capacity to mimic in S. cerevisiae the DNA repair phenotypes generated by the null mutation of ubc13 was evaluated. Thus, mutant strains in RAD6 or REV3 and the parent strain thereof (control) were used in viability assays after the exposure to ultraviolet radiation or MMS. The genotypes of the strains used are the following:
3) Strain Δrev3: MAT at his3Δ1 leu2Δ0 lys2Δ0 ura3Δ0 rev3::kanMX4
Cells were inoculated in liquid cultures with YPD medium overnight at 30° C., until reaching the log phase of growth. For the treatments with ultraviolet radiation, aliquots of cells, grown in the presence or absence of 100 μM of compounds Ia or Ib were irradiated in a Stratalinker instrument (Stratagene) at the energies indicated in FIGS. 7 and 8. For the treatment with the mutagenic agent MMS, aliquots of cells grown or not in medium with 100 μM of compounds Ia or Ib were incubated, 0.03% MMS being added, with subsequent incubation for the times indicated in FIGS. 7 and 8. After either treatment, 500 cells were seeded in plates with YPD medium, counting the colonies after 2 days.

Regarding `NC(=O)CN(CCc1ccccn1)C(=O)CC1C(=O)N(CCc2ccc(F)cc2)CC(=O)N1CCc1ccc(F)cc1` (stereo not drawn) [Ib, 1,4-bis[2′-(4″-fluorophenyl)ethyl]-2-[N-aminocarbonylmethyl-N-(2′-(2″-pyridyl)ethyl)-carbonylmethyl]piperazine-3,6-dione], the “inhibition of the control interaction between p53 and large T” value in experiment [1] is given as “Neither of these two compounds inhibits the interaction”. Further, in experiment [2], the “inhibition of the stimulation of the transcriptional activity of NF-κB induced by TNFα” value is “inhibits in a dose-dependent manner”.
Take `NC(=O)CN(CCc1ccccn1)C(=O)C1CC(=O)N(CCc2ccc(F)cc2)CC(=O)N1CCc1ccc(F)cc1` (stereo not drawn) [Ia, N-aminocarbamoylmethyl-N-(2′-(2″pyridyl)ethyl)-1,4-bis[2′-(4″-fluorophenyl)ethyl]-3,7-dioxo-[1,4]diazepane-5-carboxamide]: the “inhibition of the control interaction between p53 and large T” value in experiment [1] is reported as “Neither of these two compounds inhibits the interaction”. The “sensitization of Δrev3 cells to UV radiation or exposure to MMS” value in experiment [3] is listed as “caused a higher sensitization of the cells”. The “inhibition of the stimulation of the transcriptional activity of NF-κB induced by TNFα” value in experiment [2] is given as “inhibits in a dose-dependent manner”. Moreover, in experiment [2] (Homo sapiens, HeLa cells pre-incubated at 100 μM, read-out: inhibition of the activation of NF-κB by TNFα), the inhibition (in general, the drop in the measured response relative to a control, in per cent) at 100 µM was ~50%.
